# Measurements taken from patent US20250144131A1, “POLYSACCHARIDE COMPOUND WITH A DEFINED MOLECULAR STRUCTURE FOR THE TREATMENT OF PULMONARY FIBROSIS” (SHENZHEN YANDAI INVESTMENT CO., LTD, priority 2023, published 2025).
# Marks after values point to notes of the source that are not given here.
# Legend:
# [1] = test system: H22 hepatoma solid tumors; assay: Antitumor effect in H22-bearing mice (tumor volume, relative tumor growth inhibition rate, tumor index, tumor growth inhibition rate); format: in vivo, C57 mice
# Procedure: (§1) Longest and shortest diameters of tumors were measured every three days to calculate tumor volume, and mouse weights were recorded every three days. At the end of the experiment, tumors, spleens, and thymuses were harvested and weighed to calculate tumor, spleen, and thymus indices. […] Where TRTV is the relative tumor volume in the experimental group, and CRTV is the relative tumor volume in the model control group. Relative tumor volume (RTV)=Vt/V0, where Vt is the tumor volume on day t of dosing, and V0 is the tumor volume at the time of grouping. Evaluation criteria: […] Where T represents the average tumor weight in the treatment group, and C represents the average tumor weight in the model control group. Evaluation criteria: […]
# 4T1 breast cancer cells = assay: Antitumor effect in 4T1 breast tumor-bearing mice (tumor volume, relative tumor growth inhibition rate, tumor index, tumor growth inhibition rate); format: in vivo, BALB/c mice
# Procedure: as §1
# LLC tumors = assay: Antitumor effect in LLC-bearing mice (tumor volume, relative tumor volume, T/C, tumor coefficient, tumor growth inhibition rate); format: in vivo, C57 mice
# Text: Tumor volume measurement: […] Relative tumor volume (RTV)=TVt/TV0, where TV0 is the tumor volume at the time of administration, and TVt is the tumor volume at each measurement. Relative tumor growth rate T/C (%)=TRTV/CRTV×100%, where TRTV is the RTV for the treatment group and CRTV is the RTV for the control group. Tumor growth inhibition rate (%)=(model control group tumor weight−treatment group tumor weight)/model control group tumor weight×100%.
# [2] = Hematological and liver/kidney function tests (WBC, RBC, ALT, AST, BUN, CRE) in LLC-bearing mice
# Procedure: LLC cells in logarithmic growth phase at 1×10^7/mL were inoculated at 0.2 mL into the right axilla of 10 purchased normal male C57 mice. Tumor growth was monitored, and tumor-bearing mice were prepared. Once the tumor volume in tumor-bearing mice exceeded 200 mm^3, the tumor tissue was aseptically harvested to prepare a tissue cell suspension. This was mixed at a 1:1 (V:V) ratio with culture medium to create a tumor tissue homogenate. This homogenate was injected into the right axilla of 60 male C57 mice at 0.2 mL per mouse. When the tumor volume in these tumor-bearing mice exceeded 100 mm^3, mice with well-grown tumors without ulceration were selected and randomized into groups based on tumor volume as follows: model control group, cisplatin group (4 mg/kg), Kanglaite soft capsule group (1,404 mg/kg), cisplatin+Kanglaite soft capsule group (4+1,404 mg/kg), cisplatin+GLP-4 low-dose group (4+130 mg/kg), and cisplatin+GLP-4 high-dose group (4+1,170 mg/kg), with 8 mice per group. Additionally, 8 mice were selected as a normal control group. The cisplatin group received intraperitoneal injections of cisplatin, and the other groups were administered their respective drug solutions by gavage (20 mL/kg) or intraperitoneal injection (10 mL/kg), once daily for 27 consecutive days. After the last dose, blood was collected from the orbital plexus to test blood WBC, RBC, liver and kidney function indicators (ALT, AST, BUN, CRE), and CD3^+, CD4^+, and CD8^+ levels. Bone marrow smears were examined, and spleens, thymuses, and tumors were weighed. Histopathological examinations were conducted on the tumor, spleen, stomach, and kidneys.
# Hematological tests: Blood samples for routine blood tests (WBC and RBC) and liver and kidney function tests (BUN and CRE) were collected from the orbital plexus after the last dose.
# H22 cells = assay: Necrosis and apoptosis of H22 cells (GLP-4 combined with cisplatin); format: cell-based; set-up: unit not given here; conditions: 48 h, GLP-4 2 mg/mL, cisplatin 5 μg/mL
# Procedure: The culture medium was discarded, cells were washed with PBS and digested with 0.125% trypsin. After digestion, the reaction was stopped with medium, and cells were transferred to EP tubes for counting using a cell counter. […] 24 h later, once cells adhered, drugs were added. 48 h after drug administration, cells were digested with trypsin, washed with PBS, and recounted. The corresponding volume of staining solution was added based on cell count, then incubated for 30 min in an incubator. After incubation, cells were chilled to stop staining and maintain viability, followed by imaging using a confocal microscope.
# Based on preliminary study results, the dosing concentration for Ganoderma lucidum polysaccharide GLP-4 was set at 2 mg/mL, and for cisplatin (DDP) at 5 μg/mL.
# [3] = D4, cisplatin 4, Kanglaite 1404, GLP-4 low-dose 130 mg/kg
# [4] = D7, cisplatin 4, Kanglaite 1404, GLP-4 low-dose 130 mg/kg
# [5] = D10, cisplatin 4, Kanglaite 1404, GLP-4 low-dose 130 mg/kg
# [6] = D13, cisplatin 4, Kanglaite 1404, GLP-4 low-dose 130 mg/kg
# [7] = D16, cisplatin 4, Kanglaite 1404, GLP-4 low-dose 130 mg/kg
# [8] = D19, cisplatin 4, Kanglaite 1404, GLP-4 low-dose 130 mg/kg
# [9] = D22, cisplatin 4, Kanglaite 1404, GLP-4 low-dose 130 mg/kg
# [10] = D25, cisplatin 4, Kanglaite 1404, GLP-4 low-dose 130 mg/kg
smiles,measurement,setting,value
"N.N.[Cl][Pt][Cl] [Cisplatin, cisplatin]",Relative tumor growth inhibition rate (compared to model control group),"[1]; D3, cisplatin 3, GLP-4 low-dose 50 mg/kg",32.9%
same,Relative tumor growth inhibition rate (compared to model control group),"[1]; D6, cisplatin 3, GLP-4 low-dose 50 mg/kg",39.7%
same,Relative tumor growth inhibition rate (compared to model control group),"[1]; D9, cisplatin 3, GLP-4 low-dose 50 mg/kg, 50 mg/kg",66.5^+ %
same,Relative tumor growth inhibition rate (compared to model control group),"[1]; D9, cisplatin 3, GLP-4 low-dose 50 mg/kg, listed as cisplatin, 50 mg/kg",66.5%
same,Relative tumor growth inhibition rate (compared to model control group),"[1]; D12, cisplatin 3, GLP-4 low-dose 50 mg/kg, 50 mg/kg",70.6^+ %
same,Relative tumor growth inhibition rate (compared to model control group),"[1]; D12, cisplatin 3, GLP-4 low-dose 50 mg/kg, listed as cisplatin, 50 mg/kg",70.6%
same,Relative tumor growth inhibition rate (compared to model control group),"[1]; D15, cisplatin 3, GLP-4 low-dose 50 mg/kg, 50 mg/kg",69.1^+ %
same,Relative tumor growth inhibition rate (compared to model control group),"[1]; D15, cisplatin 3, GLP-4 low-dose 50 mg/kg, listed as cisplatin, 50 mg/kg",69.1%
same,Relative tumor growth inhibition rate (compared to model control group),"[1]; D18, cisplatin 3, GLP-4 low-dose 50 mg/kg, 50 mg/kg",81.3^+ %
same,Relative tumor growth inhibition rate (compared to model control group),"[1]; D18, cisplatin 3, GLP-4 low-dose 50 mg/kg, listed as cisplatin, 50 mg/kg",81.3%
same,Relative tumor growth inhibition rate (compared to model control group),"[1]; D21, cisplatin 3, GLP-4 low-dose 50 mg/kg, 50 mg/kg",83.9^+ %
same,Relative tumor growth inhibition rate (compared to model control group),"[1]; D21, cisplatin 3, GLP-4 low-dose 50 mg/kg, listed as cisplatin, 50 mg/kg",83.9%
same,Relative tumor growth inhibition rate (compared to model control group),"[1]; D24, cisplatin 3, GLP-4 low-dose 50 mg/kg, 50 mg/kg",85.3^+ %
same,Relative tumor growth inhibition rate (compared to model control group),"[1]; D24, cisplatin 3, GLP-4 low-dose 50 mg/kg, listed as cisplatin, 50 mg/kg",85.3%
same,Relative tumor growth inhibition rate (compared to model control group),"[1]; D27, cisplatin 3, GLP-4 low-dose 50 mg/kg, 50 mg/kg",84.3^+ %
same,Relative tumor growth inhibition rate (compared to model control group),"[1]; D27, cisplatin 3, GLP-4 low-dose 50 mg/kg, listed as cisplatin, 50 mg/kg",84.3%
same,Tumor growth inhibition rate (%) vs. the model control group,[1]; cisplatin group,88.7%
same,Tumor index,[1]; cisplatin group,2.8 ± 2.1^+ %
same,Tumor growth inhibition rate compared to the model control group,"[1]; tumor weight, cisplatin 3, GLP-4 low-dose 50 mg/kg",88.7%
same,Tumor volume,"4T1 breast cancer cells; D0, cisplatin 4 mg/kg",225.3 ± 65.4 mm^3
same,Relative tumor growth inhibition rate (compared to model control group),"4T1 breast cancer cells; D3, cisplatin 4 mg/kg",17.2%
same,Relative tumor growth inhibition rate (compared to model control group),"4T1 breast cancer cells; D6, cisplatin 4 mg/kg",43.5* %
same,Relative tumor growth inhibition rate compared to the model control group,"4T1 breast cancer cells; D6 to D25, cisplatin 4, GLP-4 low-dose 130 mg/kg",over 40%
same,Relative tumor growth inhibition rate (compared to model control group),"4T1 breast cancer cells; D9, cisplatin 4 mg/kg",49.1* %
same,Relative tumor growth inhibition rate (compared to model control group),"4T1 breast cancer cells; D12, cisplatin 4 mg/kg",55.7* %
same,Relative tumor growth inhibition rate (compared to model control group),"4T1 breast cancer cells; D15, cisplatin 4 mg/kg",56.9* %
same,Relative tumor growth inhibition rate (compared to model control group),"4T1 breast cancer cells; D19, cisplatin 4 mg/kg",48.8* %
same,Relative tumor growth inhibition rate (compared to model control group),"4T1 breast cancer cells; D22, cisplatin 4 mg/kg",44.1* %
same,Relative tumor growth inhibition rate (compared to model control group),"4T1 breast cancer cells; D25, cisplatin 4 mg/kg",42.1* %
same,Tumor volume,"4T1 breast cancer cells; D25, cisplatin 4 mg/kg",2026.4 ± 707^ mm^3
same,Tumor growth inhibition rate (%) vs. the model control group,4T1 breast cancer cells; cisplatin 4 mg/kg,29.6%
same,Tumor index,4T1 breast cancer cells; cisplatin 4 mg/kg,11.5 ± 3.3%
same,Peak relative tumor growth inhibition rate compared to the model control group,"4T1 breast cancer cells; cisplatin 4, GLP-4 low-dose 130 mg/kg",56.9%
same,Tumor growth inhibition rate compared to the model control group,"4T1 breast cancer cells; tumor weight, cisplatin 4, GLP-4 low-dose 130 mg/kg",29.6%
same,Tumor volume,"LLC tumors; D1, cisplatin 4, Kanglaite 1404, GLP-4 low-dose 130 mg/kg",94.99 ± 11.16
same,Relative tumor growth rate (T/C),LLC tumors; [3],81.4%
same,Relative tumor volume,LLC tumors; [3],1.84
same,Tumor volume,LLC tumors; [3],150.58 ± 34.35
same,Relative tumor growth rate (T/C),LLC tumors; [4],45.5%
same,Relative tumor volume,LLC tumors; [4],0.10
same,Relative tumor growth rate (T/C),LLC tumors; [5],27.3%
same,Relative tumor volume,LLC tumors; [5],0.09
same,Relative tumor growth rate (T/C),LLC tumors; [6],70.2%
same,Relative tumor volume,LLC tumors; [6],0.40
same,Tumor volume,LLC tumors; [6],27.36 ± 24.4
same,Relative tumor growth rate (T/C),LLC tumors; [7],28.2%
same,Relative tumor volume,LLC tumors; [7],0.51
same,Relative tumor growth rate (T/C),LLC tumors; [8],36.9%
same,Relative tumor volume,LLC tumors; [8],0.97
same,Relative tumor growth rate (T/C),LLC tumors; [9],30.9%
same,Relative tumor volume,LLC tumors; [9],10.62
same,Relative tumor growth rate (T/C),LLC tumors; [10],23.6%
same,Relative tumor volume,LLC tumors; [10],12.10
same,Tumor coefficient,"LLC tumors; after last dose, cisplatin 4, Kanglaite 1404, GLP-4 low-dose 130 mg/kg",7.528 ± 2.567 ^ %
same,Tumor growth inhibition rate,"LLC tumors; tumor weight vs model control, cisplatin 4, Kanglaite 1404, GLP-4 low-dose 130 mg/kg",61.6%
same,ALT,"[2]; LLC-bearing mice, blood after last dose, cisplatin 4, Kanglaite 1404, GLP-4 low-dose 130 mg/kg",58.25 U/L
same,AST,"[2]; mouse, in vivo, 130 mg/kg",393.25 U/L
same,BUN,"[2]; mouse, in vivo, 130 mg/kg",7.91 mmol/L
same,CRE,"[2]; mouse, in vivo, 130 mg/kg",20.45 µmol/L
same,RBC,"[2]; mouse, in vivo, 130 mg/kg",6.01 ± 10^12/L
same,WBC,"[2]; mouse, in vivo, 130 mg/kg",11.09 ± 10^9/L
same,"Apoptosis rate, Mean ± SD",H22 cells,10.9 ± 1.6
same,"Necrosis rate, Mean ± SD",H22 cells,33.7 ± 8.2
same,"Total mortality rate, Mean ± SD",H22 cells,44.7 ± 9.5
same,Apoptosis rate,H22 cells; single value 1,11.3
same,Necrosis rate,H22 cells; single value 1,27.3
same,Total mortality rate,H22 cells; single value 1,38.7
same,Apoptosis rate,H22 cells; single value 2,8.8
same,Necrosis rate,H22 cells; single value 2,28.6
same,Total mortality rate,H22 cells; single value 2,37.3
same,Apoptosis rate,H22 cells; single value 3,12.9
same,Necrosis rate,H22 cells; single value 3,45.4
same,Total mortality rate,H22 cells; single value 3,58.2
